Results: PMC8472287, “Betulinic Acid Decorated with Polar Groups and Blue Emitting BODIPY Dye: Synthesis, Cytotoxicity, Cell-Cycle Analysis and Anti-HIV Profiling” (Biomedicines, 2021)
Structures can show the parent of a compound that is named as a salt. Where two headings read alike, the source gives them in different places.

Tests used:
CCRF-CEM = assay: MTS cytotoxicity assay, CCRF-CEM; assay type: cell-based; details: Homo sapiens, 72 h, 3-day incubation
Excerpt: (§1) All cells (if not indicated otherwise) were purchased from the American Tissue Culture Collection (ATCC; Manassas, VA, USA). The highly chemosensitive CCRF-CEM line is derived from T lymphoblastic leukaemia, K562 represent cells of chronic myelogenous leukaemia. Colorectal adenocarcinoma HCT116 cell line and its p53 gene knockout counterpart (HCT116p53−/−, Horizon Discovery Ltd., Cambridge, UK) were used as models to assess the impact of p53 deficiency on cell line sensitivity. A549 cells are derived from lung adenocarcinoma and U2OS from human osteosarcoma. CEM-DNR and K562-Tax are well-characterized daunorubicin and paclitaxel-resistant sublines of CCRF-CEM and K562. The CEM-DNR resistant cells overexpress the P-glycoprotein and LRP protein, the K562-Tax overexpress P-glycoprotein but is losing the expression of LRP, which is present at parental K562 cell line. P-glycoprotein belongs to the ABC transporters’ family and is involved in the primary and acquired multidrug resistance phenomenon by the efflux of toxic compounds, LRP protein is involved in the lysosomal degradation. MRC-5 and BJ cell lines were used as a non-tumour control and represent human fibroblasts. The cells were maintained in Nunc/Corning 80 cm^2 plastic tissue culture flasks and cultured in cell culture medium according to ATCC or Horizon recommendations (DMEM/RPMI 1640 with 5 g/L-glucose, 2 mM glutamine, 100 U/mL penicillin, […] streptomycin, 10% fetal calf serum, and NaHCO3).
(§2) To perform the cytotoxicity MTS assay, cell suspensions were prepared and diluted according to the cell type and the expected target cell density (25,000–35,000 cells/mL) based on cell growth characteristics. Cells were added by an automatic pipettor (30 μL) into 384 well microtiter plates. All tested compounds were dissolved in 100% DMSO and four-fold dilutions of the intended test concentration were added in 0.15 μL aliquots at time zero to the microtiter plate wells by the echo-acoustic liquid handler Echo550 (Labcyte, San Jose, CA, USA). The experiments were performed in technical duplicates and at least three biological replicates. The cells were incubated with the tested compounds for 72 h at 37 °C, in a 5% CO2 atmosphere at 99% humidity. At the end of the incubation period, the cells were assayed by using the MTS test. Aliquots (5 µL) of the MTS stock solution were pipetted into each well and incubated for an additional 1–4 h. After this incubation period, the optical density (OD) was measured at 490 nm with an Envision microplate reader (Perkin Elmer, Waltham, Massachusetts, USA). Tumour cell survival (TCS) was calculated using the following equation: TCS = (ODdrug-exposed well/mean ODcontrol wells) × 100%.

CEM-DNR = assay: MTS cytotoxicity assay, CEM-DNR; assay type: cell-based; details: Homo sapiens, 72 h, CEM-DNR (daunorubicin resistant), 3-day incubation
Excerpt: as §1, §2

HCT116 = assay: MTS cytotoxicity assay, HCT116; assay type: cell-based; details: Homo sapiens, HCT-116, 72 h, 3-day incubation
Excerpt: as §1, §2

BJ = assay: MTS cytotoxicity assay, BJ; assay type: cell-based; details: Homo sapiens, 72 h, BJ normal fibroblasts, 3-day incubation
Excerpt: as §1, §2

K562 = assay: MTS cytotoxicity assay, K562; assay type: cell-based; details: Homo sapiens, 72 h, 3-day incubation
Excerpt: as §1, §2

A549 = assay: MTS cytotoxicity assay, A549; assay type: cell-based; details: Homo sapiens, 72 h, 3-day incubation
Excerpt: as §1, §2

K562-Tax = assay: MTS cytotoxicity assay, K562-Tax; assay type: cell-based; details: Homo sapiens, 72 h, K562-Tax (paclitaxel-resistant), 3-day incubation
Excerpt: as §1, §2

HCT116p53−/− = assay: MTS cytotoxicity assay, HCT116p53−/−; assay type: cell-based; details: Homo sapiens, HCT116-p53-null, 72 h, HCT116p53−/− (null p53 gene), 3-day incubation
Excerpt: as §1, §2

MRC-5 = assay: MTS cytotoxicity assay, MRC-5; assay type: cell-based; details: Homo sapiens, MRC5, 72 h, MRC-5 normal fibroblasts, 3-day incubation
Excerpt: as §1, §2

U2OS = assay: MTS cytotoxicity assay, U2OS; assay type: cell-based; details: Homo sapiens, 72 h, 3-day incubation
Excerpt: as §1, §2

in vitro = details: human
[1] = tested on: VSV-G pseudotyped HIV-1 particles; assay: microbe, parasite or virus in culture; assay type: cell-based; details: for IC50: read-out: IC50i (50% infection inhibition)
[2] = tested on: CA-SP1 processing of HIV-1 Gag polyprotein; assay: Western blot of released virions with anti-HIV-1 CA antibody; assay type: cell-based
CCRF-CEM lymphoblasts = assay: BrU incorporation analysis (RNA synthesis); assay type: cell-based, human; details: 24 h, 5 × IC50 (high concentration)
[3] = Human immunodeficiency virus 1, HEK293, 48 h

Row | Compound | IC50 (CCRF-CEM) [µM] | IC50 (CEM-DNR) [µM] | IC50 (HCT116) [µM] | IC50 (BJ) [µM] | cytotoxic effect in the cell line panel (in words) (entire cell line panel) | IC50 (K562) [µM] | IC50 (A549) [µM] | IC50 (K562-Tax) [µM] | IC50 (HCT116p53−/−) [µM] | IC50 (MRC-5) [µM] | IC50 (U2OS) [µM] | IC50 (in vitro) [µM] | anti-HIV-1 activity (in words) [1] | IC50 [1, 3] [µM] | CA forms identified in released viruses (CA-SP1 processing) [2] | IC50 [1] [µM] | RNA synthesis by BrU (in words) (CCRF-CEM lymphoblasts)
1 | C=C(C)[C@@H]1CC[C@]2(C(=O)O)CC[C@]3(C)[C@H](CC[C@@H]4[C@@]5(C)CC[C@H](OC(=O)CC(C)(C)C(=O)O)C(C)(C)[C@@H]5CC[C@]43C)[C@@H]12 [BT, 3-O-(3,3-dimethylsuccinyl) betulinic acid, reference compound] | 12.8 | 22.2 | 14.2 | > 50 | weak or medium cytotoxic effect | 23.6 | 23.1 | 22 | 18.2 | > 50 | 27.6 | – | – | – | – | – | –
2 | C=C(C)[C@@H]1CC[C@]2(C(=O)NCCCN=[N+]=[N-])CC[C@]3(C)[C@H](CC[C@@H]4[C@@]5(C)CC[C@H](O)C(C)(C)[C@@H]5CC[C@]43C)[C@@H]12 [Compound 1, (3β)-N-(3-Azidopropyl)-3-hydroxylup-20(29)-ene-28-amide] | 8.98 | 16.8 | > 50 | > 50 | activity only against selected cell lines | > 50 | > 50 | 10.6 | > 50 | > 50 | 29 | > 40 | did not exhibit any potent anti-HIV-1 activity | > 50 | – | – | –
3 | C=C(C)[C@@H]1CC[C@]2(C(=O)NCCCN=[N+]=[N-])CC[C@]3(C)[C@H](CC[C@@H]4[C@@]5(C)CC[C@H](OC(=O)CCNC6=C7C=CC=[N+]7[B-](F)(F)n7cccc76)C(C)(C)[C@@H]5CC[C@]43C)[C@@H]12 [Compound 5, (3β)-N-(3-Azidopropyl)-3-[N´-(4,4-difluoro-4-bora-3a,4a-diaza-s-indacene-8-yl)-β-alanyl]-oxy-lup-20(29)-ene-28-amide] | – | – | – | – | did not induce any cytotoxic effect | – | – | – | – | – | – | > 40 | did not exhibit any potent anti-HIV-1 activity | > 50 | – | – | –
4 | C=C(C)[C@@H]1CC[C@]2(C(=O)NCCCNC(=O)OC(C)(C)C)CC[C@]3(C)[C@H](CC[C@@H]4[C@@]5(C)CC[C@H](O)C(C)(C)[C@@H]5CC[C@]43C)[C@@H]12 [Compound 7, Tert-butyl-(3-{[(3β)-3-hydroxy-28-oxolup-20(29)-ene-28-yl]amino}propyl)-carbamate] | > 50 | > 50 | > 50 | 20.7 | activity only against selected cell lines | > 50 | 21.3 | > 50 | > 50 | 17.6 | 18.4 | > 40 | did not exhibit any potent anti-HIV-1 activity | > 50 | – | – | –
5 | C=C(C)[C@@H]1CC[C@]2(C(=O)NCCCN)CC[C@]3(C)[C@H](CC[C@@H]4[C@@]5(C)CC[C@H](OC(=O)CC(C)(C)C(=O)O)C(C)(C)[C@@H]5CC[C@]43C)[C@@H]12 [Compound 9, 4-{[(3β)-28-[(3-Aminopropyl)amino]-28-oxolup-20(29)-ene-3-yl]oxy}-2,2-dimethyl-4-oxo-butanooic acid hydrochloride] | 22.5 | > 50 | > 50 | > 50 | inactive | > 50 | > 50 | > 50 | > 50 | > 50 | > 50 | > 40 | – | 14 | not only fully processed p24 CA, but also p25 CA-SP1 protein | – | –
6 | C=C(C)[C@@H]1CC[C@]2(C(=O)N3CCN(CCNC(=O)OC(C)(C)C)CC3)CC[C@]3(C)[C@H](CC[C@@H]4[C@@]5(C)CC[C@H](O)C(C)(C)[C@@H]5CC[C@]43C)[C@@H]12 [Compound 13, Tert-butyl-(2-{4-[(3β)-3-hydroxy-28-oxolup-20(29)-ene-28-yl]piperazine-1-yl}ethyl)-carbamate] | > 50 | 4.76 | 6.02 | 5.36 | high cytotoxicity | 5.09 | 5.15 | 8.77 | 4.99 | 5.18 | 4.16 | > 40 | did not exhibit any potent anti-HIV-1 activity | > 50 | – | – | –
7 | C=C(C)[C@@H]1CC[C@]2(C(=O)N3CCN(CCNC4=C5C=CC=[N+]5[B-](F)(F)n5cccc54)CC3)CC[C@]3(C)[C@H](CC[C@@H]4[C@@]5(C)CC[C@H](O)C(C)(C)[C@@H]5CC[C@]43C)[C@@H]12 [Compound 15, (3β)-28-{4-[N-(4,4-Difluoro-4-bora-3a,4a-diaza-s-indacene-8-yl)-2-aminoethyl]piperazine-1-yl}-3-hydroxylup-20(29)-ene-28-one] | – | – | – | – | did not induce any cytotoxic effect | – | – | – | – | – | – | > 40 | did not exhibit any potent anti-HIV-1 activity | > 50 | – | – | –
8 | C=C(C)[C@@H]1CC[C@]2(C(=O)N3CCN(CCNC(=O)OC(C)(C)C)CC3)CC[C@]3(C)[C@H](CC[C@@H]4[C@@]5(C)CC[C@H](OC(=O)CC(C)(C)C(=O)O)C(C)(C)[C@@H]5CC[C@]43C)[C@@H]12 [Compound 16, 4-{[(3β)-28-(4-{2-[(Tert-butoxycarbonyl)amino]ethyl}piperazine-1-yl)-28-oxolup-20(29)-ene-3-yl]oxy}-2,2-dimethyl-4-oxobutanoic acid] | > 50 | > 50 | 46.6 | 47.6 | did not induce any cytotoxic effect | 47.9 | 44.9 | > 50 | 44.8 | 44.6 | 44.6 | > 40 | – | < 10 | not only fully processed p24 CA, but also p25 CA-SP1 protein | 9.1 | –
9 | C=C(C)[C@@H]1CC[C@]2(C(=O)N3CCN(CCN)CC3)CC[C@]3(C)[C@H](CC[C@@H]4[C@@]5(C)CC[C@H](OC(=O)CC(C)(C)C(=O)O)C(C)(C)[C@@H]5CC[C@]43C)[C@@H]12 [Compound 17, 4-{[(3β)-28-[4-(2-Aminoethyl)piperazine-1-yl]-28-oxolup-20(29)-ene-3-yl]oxy}-2,2-dimethyl-4-oxobutanoic acid hydrochloride] | 5.76 | > 50 | > 50 | > 50 | inactive | > 50 | > 50 | > 50 | > 50 | > 50 | 44.6 | > 40 | – | < 10 | not only fully processed p24 CA, but also p25 CA-SP1 protein | 7.6 | stalled RNA synthesis
